From patent US9902736B2, “1-oxo/acylation-14-acylated oridonin derivative, preparation method therefor and application thereof” (HANGZHOU BENSHENG PHARMACEUTICAL CO., LTD., priority 2012, dated 2018)
≈ marks a conversion by molar mass, not a printed value.

Columns and labels:
K562/ADR = assay: Leukemia cell growth inhibition, MTT, 72 h; type: cell-based; details: Homo sapiens
Outline: (§1)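 6000 cells per well were seeded, and the next day test compounds were added at a range of concentrations. Plates were kept at 37° C in 5% CO2 for 72 hours before viable cells were measured by MTT. K562/ADR is a drug-resistant CML line; H9 and Jurkat are ALL; Kasumi-1 is AML-M2.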

Kasumi-1 = assay: Leukemia cell growth inhibition, MTT, 72 h; type: cell-based; details: Homo sapiens
Outline: as §1

H9 = assay: Leukemia cell growth inhibition, MTT, 72 h; type: cell-based, human; details: Homo sapiens, H9; 72 h, MTT
Outline: as §1

Jurkat = assay: Leukemia cell growth inhibition, MTT, 72 h; type: cell-based, human; details: Homo sapiens, Jurkat; 72 h, MTT
Outline: as §1

NB4 = assay: Leukemia cell growth inhibition, MTT, 72 h; type: cell-based, human; details: Homo sapiens, NB-4; 72 h, MTT
Outline: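 MTT read-out of viable cell concentration after 72 hours of exposure at 37° C under 5% CO2. Compounds were dosed at several concentrations one day after plating 6000 cells per well.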

RPMI 8226 = assay: Multiple myeloma cell growth inhibition, MTT, 72 h; type: cell-based; details: Homo sapiens
Outline: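 Growth inhibition by MTT after 72 h drug exposure (37 °C, 5% CO2) over a concentration range of oridonin derivatives. RPMI 8226 cells plated at 6000 per well and dosed the following day.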

CNE = assay: Solid tumor cell growth inhibition, MTT, 72 h; type: cell-based, human; details: Homo sapiens, CNE; 72 h, MTT
Outline: (§2)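 Human tumor cells were seeded at 6000 per well in DMEM High Glucose with 10% fetal bovine serum and allowed to settle for 24 hours at 37° C under 5% CO2. Compounds were then added at a range of concentrations before viable cell concentration was determined.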

Hela = assay: Solid tumor cell growth inhibition, MTT, 72 h; type: cell-based, human; details: Homo sapiens, HeLa; 72 h, MTT
Outline: as §2

Hep-2 = assay: Solid tumor cell growth inhibition, MTT, 72 h; type: cell-based, human; details: Homo sapiens, HEp-2; 72 h, MTT
Outline: as §2

MGC-803 = assay: Solid tumor cell growth inhibition, MTT, 72 h; type: cell-based, human; details: Homo sapiens, MGC-803; 72 h, MTT
Outline: as §2

A549 = assay: Solid tumor cell growth inhibition, MTT, 72 h; type: cell-based; details: Homo sapiens
Outline: as §2

Becap-37 = assay: Solid tumor cell growth inhibition, MTT, 72 h; type: cell-based; details: Homo sapiens
Outline: as §2

CaEs-17 = assay: Solid tumor cell growth inhibition, MTT, 72 h; type: cell-based; details: Homo sapiens, CaEs17
Outline: as §2

Hep G2 = assay: Solid tumor cell growth inhibition, MTT, 72 h; type: cell-based; details: Homo sapiens, HepG2
Outline: as §2

MG-63 = assay: Solid tumor cell growth inhibition, MTT, 72 h; type: cell-based; details: Homo sapiens
Outline: as §2

PANC-1 = assay: Solid tumor cell growth inhibition, MTT, 72 h; type: cell-based; details: Homo sapiens
Outline: as §2

PC-3 = assay: Solid tumor cell growth inhibition, MTT, 72 h; type: cell-based; details: Homo sapiens
Outline: as §2

RKO = assay: Solid tumor cell growth inhibition, MTT, 72 h; type: cell-based; details: Homo sapiens
Outline: as §2

SK-OV-3 = assay: Solid tumor cell growth inhibition, MTT, 72 h; type: cell-based; details: Homo sapiens, SK-OV-3, 72 h, MTT; for IC50: read-out: IC50 SK-OV-3; for IC90: read-out: IC90 SK-OV-3
Outline: as §2

U87-MG = assay: Solid tumor cell growth inhibition, MTT, 72 h; type: cell-based; details: Homo sapiens, U-87 MG
Outline: as §2

C=C1C(=O)[C@]23[C@H](OC(=O)C4CCN(S(=O)(=O)c5cccc([N+](=O)[O-])c5)CC4)[C@H]1CC[C@H]2[C@@]12CO[C@@]3(O)[C@@H](O)[C@@H]1C(C)(C)CCC2=O [BS-OR-037] showed an IC50 (K562/ADR) of 1.32 mg/L (≈ 2 µM), an IC90 (K562/ADR) of 3.6 mg/L (≈ 5.47 µM) and an IC50 (Kasumi-1) of 1.41 mg/L (≈ 2.14 µM). For the same compound, the IC90 (Kasumi-1) was 3.19 mg/L (≈ 4.84 µM), the IC50 (H9) was 1.64 mg/L (≈ 2.49 µM) and the IC90 (H9) was 3.46 mg/L (≈ 5.25 µM). For the same compound, the IC50 (Jurkat) was 1.16 mg/L (≈ 1.76 µM), the IC90 (Jurkat) was 4.4 mg/L (≈ 6.68 µM) and the IC50 (NB4) was 0.35 mg/L (≈ 0.531 µM). It also gave an IC90 (NB4) of 1.66 mg/L (≈ 2.52 µM), an IC50 (RPMI 8226) of 1.7 mg/L (≈ 2.58 µM) and an IC90 (RPMI 8226) of 3.73 mg/L (≈ 5.66 µM). The IC50 (CNE) was 2.95 mg/L (≈ 4.48 µM), the IC90 (CNE) was 8.76 mg/L (≈ 13.3 µM) and the IC50 (Hela) was 3.41 mg/L (≈ 5.18 µM). For the same compound, the IC90 (Hela) was 10.1 mg/L (≈ 15.3 µM), the IC50 (Hep-2) was 3.58 mg/L (≈ 5.43 µM) and the IC90 (Hep-2) was 15.3 mg/L (≈ 23.2 µM). It also gave an IC50 (MGC-803) of 3.18 mg/L (≈ 4.83 µM), an IC90 (MGC-803) of 6.35 mg/L (≈ 9.64 µM) and an IC50 (A549) of 5.72 mg/L (≈ 8.68 µM). The IC90 (A549) was 10.1 mg/L (≈ 15.4 µM), the IC50 (Becap-37) was 2.75 mg/L (≈ 4.17 µM) and the IC90 (Becap-37) was 7.47 mg/L (≈ 11.3 µM). The IC50 (CaEs-17) was 3.07 mg/L (≈ 4.66 µM), the IC90 (CaEs-17) was 11.2 mg/L (≈ 16.9 µM) and the IC50 (Hep G2) was 3.33 mg/L (≈ 5.06 µM). It also gave an IC90 (Hep G2) greater than 16 mg/L, an IC50 (MG-63) of 1.2 mg/L (≈ 1.82 µM) and an IC90 (MG-63) of 3.1 mg/L (≈ 4.71 µM). The IC50 (PANC-1) was 4.98 mg/L (≈ 7.56 µM), the IC90 (PANC-1) was 11.1 mg/L (≈ 16.8 µM) and the IC50 (PC-3) was 3.48 mg/L (≈ 5.28 µM). The IC90 (PC-3) was 7.08 mg/L (≈ 10.7 µM), the IC50 (RKO) was 0.91 mg/L (≈ 1.38 µM) and the IC90 (RKO) was 1.84 mg/L (≈ 2.79 µM). The IC50 (SK-OV-3) was 3.48 mg/L (≈ 5.28 µM), the IC90 (SK-OV-3) was 7.08 mg/L (≈ 10.7 µM) and the IC50 (U87-MG) was 1.86 mg/L (≈ 2.82 µM). The IC90 (U87-MG) was 4.68 mg/L (≈ 7.1 µM).

C=C1C(=O)[C@]23[C@H](OC(=O)c4ccccc4Cl)[C@H]1CC[C@H]2[C@@]12CO[C@@]3(O)[C@@H](O)[C@@H]1C(C)(C)CCC2=O [BS-OR-003] was tested, and the IC50 (K562/ADR) was 0.71 mg/L (≈ 1.42 µM), the IC90 (K562/ADR) was 2.07 mg/L (≈ 4.13 µM) and the IC50 (Kasumi-1) was 0.72 mg/L (≈ 1.44 µM). For the same compound, the IC90 (Kasumi-1) was 2.25 mg/L (≈ 4.49 µM), the IC50 (H9) was 0.83 mg/L (≈ 1.66 µM) and the IC90 (H9) was 1.82 mg/L (≈ 3.63 µM). The IC50 (Jurkat) was 0.81 mg/L (≈ 1.62 µM), the IC90 (Jurkat) was 2.72 mg/L (≈ 5.43 µM) and the IC50 (NB4) was 0.22 mg/L (≈ 0.439 µM). It also gave an IC90 (NB4) of 0.81 mg/L (≈ 1.62 µM), an IC50 (RPMI 8226) of 0.46 mg/L (≈ 0.918 µM) and an IC90 (RPMI 8226) of 1.79 mg/L (≈ 3.57 µM). It also gave an IC50 (CNE) of 1.93 mg/L (≈ 3.85 µM), an IC90 (CNE) of 6.62 mg/L (≈ 13.2 µM) and an IC50 (Hela) of 1.84 mg/L (≈ 3.67 µM). The IC90 (Hela) was 5.31 mg/L (≈ 10.6 µM), the IC50 (Hep-2) was 1.85 mg/L (≈ 3.69 µM) and the IC90 (Hep-2) was 7.56 mg/L (≈ 15.1 µM). It also gave an IC50 (MGC-803) of 1.43 mg/L (≈ 2.85 µM), an IC90 (MGC-803) of 10.7 mg/L (≈ 21.4 µM) and an IC50 (A549) of 2.82 mg/L (≈ 5.63 µM). The IC90 (A549) was 5.64 mg/L (≈ 11.3 µM), the IC50 (Becap-37) was 1.12 mg/L (≈ 2.24 µM) and the IC90 (Becap-37) was 3.09 mg/L (≈ 6.17 µM). For the same compound, the IC50 (CaEs-17) was 1.49 mg/L (≈ 2.97 µM), the IC90 (CaEs-17) was 5.23 mg/L (≈ 10.4 µM) and the IC50 (Hep G2) was 1.69 mg/L (≈ 3.37 µM). The IC90 (Hep G2) was 7.48 mg/L (≈ 14.9 µM), the IC50 (MG-63) was 0.48 mg/L (≈ 0.958 µM) and the IC90 (MG-63) was 2.74 mg/L (≈ 5.47 µM). For the same compound, the IC50 (PANC-1) was 2.34 mg/L (≈ 4.67 µM), the IC90 (PANC-1) was 8.51 mg/L (≈ 17 µM) and the IC50 (PC-3) was 1.82 mg/L (≈ 3.63 µM). It also gave an IC90 (PC-3) of 3.82 mg/L (≈ 7.63 µM), an IC50 (RKO) of 0.66 mg/L (≈ 1.32 µM) and an IC90 (RKO) of 1.49 mg/L (≈ 2.97 µM). It also gave an IC50 (SK-OV-3) of 1.82 mg/L (≈ 3.63 µM), an IC90 (SK-OV-3) of 3.82 mg/L (≈ 7.63 µM) and an IC50 (U87-MG) of 0.99 mg/L (≈ 1.98 µM). The IC90 (U87-MG) was 2.82 mg/L (≈ 5.63 µM).
